Results published in ChEMBL document CHEMBL1177803, “In vitro antituberculosis activities of the constituents isolated from Haloxylon salicornicum” (2010).
In brackets after ≈: the same amount, converted by molar mass. Activity calls are given as the source filed them. No cut-off for these calls is given here.

Tests used:
[1] = test system: Mycobacterium tuberculosis; experiment: Antituberculosis activity against Mycobacterium tuberculosis H37Rv ATCC 27294 after 2 weeks by microbroth dilution method; type: functional; conditions: H37Rv ATCC 27294, 336 h
[2] = test system: Mycobacterium tuberculosis; experiment: Antituberculosis activity against Mycobacterium tuberculosis H37Rv ATCC 27294 in stationary phase culture at pH 5.8 up to 200 ug/ml after 3 days followed by washout from day 4 to week 4 by microbroth dilution method; type: functional, organism-based

SMILES	MIC [1] [µg/mL]	Activity [2]
C[C@H]1[C@H](C)CC[C@]2(C(=O)O)CC[C@]3(C)C(=CC[C@@H]4[C@@]5(C)CC[C@H](O)C(C)(C)[C@@H]5CC[C@]43C)[C@H]12 [URSOLIC ACID]	100 (≈ 219 µM)	inactive
C=C(C)[C@@H]1CC[C@]2(C)CC[C@]3(C)[C@H](CC[C@@H]4[C@@]5(C)CC[C@H](OC(C)=O)C(C)(C)[C@@H]5CC[C@]43C)[C@@H]12 [LUPENYL ACETATE]	100	inactive
NNC(=O)c1ccncc1 [ISONIAZID]	0.02 (≈ 0.146 µM)	inactive
O=C(/C=C\C=C/CCCCCCCCCCCCCCCCCO)N1CCCCC1 [HALOXYLINE A]	100 (≈ 238 µM)	inactive
CC(C)[C@@H](C)/C=C/[C@@H](C)[C@H]1CC[C@@H]2[C@]1(C)CC[C@H]1[C@]23C=C[C@]2(C[C@@H](O)CC[C@]12C)OO3 [ERGOSTEROL PEROXIDE]	100 (≈ 233 µM)	inactive
CC[C@H](/C=C/[C@@H](C)[C@H]1CC[C@H]2[C@@H]3CCC4=C[C@@H](O[C@@H]5O[C@H](CO)[C@@H](O)[C@H](O)[C@H]5O)CC[C@]4(C)[C@H]3CC[C@]12C)C(C)C	100 (≈ 174 µM)	inactive
CCCCCCCCCCCCCCCC(=O)O[C@H]1CC[C@]2(C)[C@H]3CC=C4[C@H]5CC(C)(C)CC[C@]5(C)CC[C@@]4(C)[C@]3(C)CC[C@H]2C1(C)C	100 (≈ 150 µM)	inactive
CCCCC(O)CCCCCCCCCCCCCCCCCCCC(=O)CCC (configuration not stated)	100 (≈ 235 µM)	inactive
CC(C)[C@@H](C)/C=C/[C@@H](C)[C@H]1CC[C@@H]2[C@]1(C)CC=C1[C@]23C=C[C@]2(C[C@@H](O)CC[C@]12C)OO3	100 (≈ 234 µM)	inactive
OCCCCCCCCCCCCCCCCCCCCCCC1CCCCC1	100 (≈ 245 µM)	inactive
C[C@H]1[C@H](C)CC[C@]2(C)CC[C@]3(C)C(=CC[C@@H]4[C@@]5(C)CCC[C@H](C)[C@@H]5CC[C@]43C)[C@H]12	100 (≈ 252 µM)	inactive
C=C(C)[C@@H]1CC[C@]2(C)CC[C@]3(C)[C@H](CC[C@@H]4[C@@]5(C)CC[C@H](O)C(C)(C)[C@@H]5CC[C@]43C)[C@@H]12 [LUPEOL]	100 (≈ 234 µM)	inactive
CC[C@H](/C=C/[C@@H](C)[C@H]1CC[C@H]2[C@@H]3CC=C4C[C@@H](O)CC[C@]4(C)[C@H]3CC[C@]12C)C(C)C [STIGMASTEROL]	100 (≈ 242 µM)	inactive
O=C(/C=C\C=C/CCCCCCCCCCCCCCCCCO)N1CCC[C@@H](O)C1 [HALOXYLINE B]	50 (≈ 115 µM)	inactive
CC(=O)O[C@H]1CC[C@]2(C)[C@H]3CC=C4[C@@H]5CC(C)(C)CC[C@]5(C)CC[C@@]4(C)[C@]3(C)CC[C@H]2C1(C)C [beta-AMYRIN ACETATE]	100	inactive
CC[C@H](/C=C/[C@@H](C)[C@H]1CC[C@H]2[C@@H]3CC=C4C[C@@H](O[C@@H]5O[C@H](CO)[C@@H](O)[C@H](O)[C@H]5O)CC[C@]4(C)[C@H]3CC[C@]12C)C(C)C [STIGMASTEROL GLUCOSIDE]	50 (≈ 87 µM)	inactive
COc1c(O)cc2ccc(=O)oc2c1OC	100 (≈ 450 µM)	inactive
CC[C@H](/C=C/[C@@H](C)[C@H]1CC[C@H]2[C@@H]3CCC4=C[C@@H](O[C@@H]5O[C@@H](C)[C@H](O)[C@@H](O)[C@H]5O)CC[C@]4(C)[C@H]3CC[C@]12C)C(C)C	50 (≈ 89.5 µM)	inactive
OCCCCCCCCCCCCCCCCCCCCC1CCCCC1	100 (≈ 263 µM)	inactive
CCC(CC[C@@H](C)[C@H]1CC[C@H]2[C@@H]3CC=C4C=CCC[C@]4(C)[C@H]3CC[C@]12C)C(C)C (some centres not stated)	100 (≈ 252 µM)	inactive
CC1(C)CC[C@]2(C)CC[C@]3(C)C(=CC[C@@H]4[C@@]5(C)CC[C@H](O)C(C)(C)[C@@H]5CC[C@]43C)[C@@H]2C1 [beta-AMYRIN]	100 (≈ 234 µM)	inactive
